These results are taken from PMC11672294, “The Antipsychotic Drug Aripiprazole Suppresses Colorectal Cancer by Targeting LAMP2a to Induce RNH1/miR‐99a/mTOR‐Mediated Autophagy and Apoptosis” (Advanced Science, 2024).

For this data set, the system named is HT29. Particulars: 72 h, relative to DMSO, 10 µM. The source says:
To investigate the key signaling pathways and biological processes involved in CRC progression, we analyzed the National Center for Biotechnology Information Gene Expression Omnibus (GEO) dataset GSE115313, which included 42 CRC and paired normal tissues (Figure 1A). […] Next, we performed an Annexin V‐fluorescein isothiocyanate (FITC)/propidium iodide (PI) staining assay to determine the effect of aripiprazole on apoptosis in CRC cells. […] A) Principal component analysis of GEO dataset (GSE115313), which includes 42 CRC and paired normal tissues. B) Gene Ontology pathway analysis of the DEPs between CRC and paired normal tissues. […] D) Schematic diagram for identifying anticancer drugs amongst an US Food and Drug Administration‐approved small‐molecule library (616 compounds) using WST‐1 assay. E) HT29 cells were treated with the 616 drugs (10 µM) individually or with dimethyl sulfoxide for 72 h, followed by WST‐1 assay. […] J) Mice bearing HT29‐derived tumor xenografts were intragastrically administered with aripiprazole (10 or 20 mg kg^−1) once every 2 d, n = 6 mice/group. […] Bars, SD; ^* p < 0.05; ^** p < 0.01; ^*** p < 0.001; ns, no significant difference. The WST‐1 Cell Proliferation and Cytotoxicity Assay Kit (Beyotime Biotechnology, Shanghai, China) was used to measure cell viability, as described previously.^[ [10] ^] CRC cells were seeded into 96‐well plates and treated with different drug concentrations. Following that, WST‐1 was added to the plate and incubated with the cells for 2 h, at 37 °C. Absorbance at the wavelength of 450 nm was measured using an automated microplate spectrophotometer (BioTek Instruments, Winooski, VT, USA).

Structures can show the parent of a compound that is named as a salt. Where two headings read alike, the source gives them in different places.

Consider `COc1ccc(C(=O)CC(=O)c2ccc(C(C)(C)C)cc2)cc1` [Avobenzone], for which the “Relative cell viability (%)” value is 117.3%.

For the molecule `Nc1ncn([C@@H]2O[C@H](CO)[C@@H](O)[C@H]2O)c(=O)n1` [Azacitidine], the “Relative cell viability (%)” value is recorded as 56.36%.

Consider `O=C(CCCN1CCN(c2ccccn2)CC1)c1ccc(F)cc1` [Azaperone], for which the “Relative cell viability (%)” value came to 93.03%.

Turning to `CC1=C(C(=O)OC(C)C)C(c2cccc([N+](=O)[O-])c2)C(C(=O)OC2CN(C(c3ccccc3)c3ccccc3)C2)=C(N)N1` (stereo not shown) [Azelnidipine], the “Relative cell viability (%)” value was 73.79%.

Regarding `CCOc1nc2cccc(C(=O)OCc3oc(=O)oc3C)c2n1Cc1ccc(-c2ccccc2-c2noc(=O)[nH]2)cc1` [Azilsartan Medoxomil], the “Relative cell viability (%)” value was determined as 116%.

`CCOc1nc2cccc(C(=O)O)c2n1Cc1ccc(-c2ccccc2-c2noc(=O)[nH]2)cc1` [Azilsartan]: the “Relative cell viability (%)” value amounted to 73.79%.

As to `CC[C@H]1OC(=O)[C@H](C)[C@@H](O[C@H]2C[C@@](C)(OC)[C@@H](O)[C@H](C)O2)[C@H](C)[C@@H](O[C@@H]2O[C@H](C)C[C@H](N(C)C)[C@H]2O)[C@](C)(O)C[C@@H](C)CN(C)[C@H](C)[C@@H](O)[C@]1(C)O` [Azithromycin], the “Relative cell viability (%)” value turned out to be 33.47%.

Regarding `CCc1cc(/C(C)=N/OCc2ccc(C3CCCCC3)c(C(F)(F)F)c2)ccc1CN1CC(C(=O)O)C1` [BAF312 (Siponimod)], the “Relative cell viability (%)” value was 107.265%.

For `Cc1nc(NC(=O)N2CCC[C@H]2C(N)=O)sc1-c1ccnc(C(C)(C)C(F)(F)F)c1` [BYL719], the “Relative cell viability (%)” value worked out at 50.49%.

As to `Cc1ccc(NC(=O)c2ccc(CN3CC[C@H](N(C)C)C3)c(C(F)(F)F)c2)cc1Nc1nccc(-c2cncnc2)n1` [Bafetinib (INNO-406)], the “Relative cell viability (%)” value is 4.206%.

Take `CNC1CCCN(c2c(F)cc3c(=O)c(C(=O)O)cn(C4CC4)c3c2OC)C1` (stereo not shown) [Balofloxacin]: the “Relative cell viability (%)” value stood at 111.9%.

On to `CNC(=O)[C@H](Cc1ccccc1)NC(=O)[C@H](CC(C)C)[C@H](CSc1cccs1)C(=O)NO` [Batimastat (BB-94)], for which the “Relative cell viability (%)” value was 103.4%.

Regarding `Cc1c(-c2ccc(O)cc2)n(Cc2ccc(OCCN3CCCCCC3)cc2)c2ccc(O)cc12` [Bazedoxifene Acetate], the “Relative cell viability (%)” value (Relative cell viability (%)) came out at 88.41%.

On to `Cc1c(-c2ccc(O)cc2)n(Cc2ccc(OCCN3CCCCCC3)cc2)c2ccc(O)cc12` [Bazedoxifene HCl], for which the “Relative cell viability (%)” value (Relative cell viability (%)) is reported as 91.36%.

For the molecule `CCC1(C)CC(=O)NC(=O)C1` [Bemegride], the “Relative cell viability (%)” value amounted to 88.48%.

Regarding `CCOC(=O)[C@H](CCc1ccccc1)N[C@H]1CCc2ccccc2N(CC(=O)O)C1=O` [Benazepril HCl], the “Relative cell viability (%)” value is on record as 72.74%.

As to `NC(CO)C(=O)NNCc1ccc(O)c(O)c1O` (stereo not shown) [Benserazide HCl], the “Relative cell viability (%)” value came out at 108.4%.

For `CCc1oc2ccccc2c1C(=O)c1cc(Br)c(O)c(Br)c1` [Benzbromarone], the “Relative cell viability (%)” value is reported as 82.12%.

On to `CCOC(=O)c1ccc(N)cc1` [Benzocaine], for which the “Relative cell viability (%)” value was 80.303%.

For `O=C(O)CCCN1CCC(O[C@@H](c2ccc(Cl)cc2)c2ccccn2)CC1` [Bepotastine Besilate], the “Relative cell viability (%)” value is recorded as 89.81%.

Turning to `O=C(O)CCNC(=O)c1ccccc1` [Betamipron], the “Relative cell viability (%)” value was determined as 90.303%.

On to `CC(C)NCC(O)COc1ccc(CCOCC2CC2)cc1` (stereo not shown) [Betaxolol hydrochloride (Betoptic)], for which the “Relative cell viability (%)” value (Relative cell viability (%)) is 100.8%.

Regarding `CC(C)NCC(O)COc1ccc(CCOCC2CC2)cc1` (stereo not shown) [Betaxolol], the “Relative cell viability (%)” value (Relative cell viability (%)) was determined as 109.6%.

With `CC(C[N+](C)(C)C)OC(N)=O` (stereo not shown) [Bethanechol chloride], the “Relative cell viability (%)” value came to 104.3%.

Turning to `C=C(c1ccc(C(=O)O)cc1)c1cc2c(cc1C)C(C)(C)CCC2(C)C` [Bexarotene], the “Relative cell viability (%)” value amounted to 134.4%.

Turning to `c1ccc(-c2ccc(C(c3ccccc3)n3ccnc3)cc2)cc1` (stereo not shown) [Bifonazole], the “Relative cell viability (%)” value came to 88.14%.

On to `CC[C@H](NC(=O)[C@H](C)NC)C(=O)N1C[C@@H](O)C[C@H]1Cc1c(-c2[nH]c3cc(F)ccc3c2C[C@@H]2C[C@H](O)CN2C(=O)[C@H](CC)NC(=O)[C@H](C)NC)[nH]c2cc(F)ccc12` [Birinapant], for which the “Relative cell viability (%)” value stood at 132.9%.

With `Cc1c(N)nc([C@H](CC(N)=O)NC[C@H](N)C(N)=O)nc1C(=O)N[C@H](C(=O)N[C@H](C)[C@@H](O)[C@H](C)C(=O)N[C@H](C(=O)NCCc1nc(-c2nc(C(=O)NCCC[S+](C)C)cs2)cs1)[C@@H](C)O)[C@@H](O[C@@H]1O[C@@H](CO)[C@@H](O)[C@H](O)[C@@H]1O[C@H]1O[C@H](CO)[C@@H](O)[C@H](OC(N)=O)[C@@H]1O)c1c[nH]cn1` [Bleomycin Sulfate], the “Relative cell viability (%)” value came to 74.3%.

Consider `COc1ccccc1Oc1c(NS(=O)(=O)c2ccc(C(C)(C)C)cc2)nc(-c2ncccn2)nc1OCCO` [Bosentan Hydrate], for which, where the note is “Relative cell viability (%)”, the “Relative cell viability (%)” value worked out at 83.98%.

In the case of `COc1ccccc1Oc1c(NS(=O)(=O)c2ccc(C(C)(C)C)cc2)nc(-c2ncccn2)nc1OCCO` [Bosentan], the “Relative cell viability (%)” value (Relative cell viability (%)) was found to be 63.94%.

As to `Nc1c(CC(=O)O)cccc1C(=O)c1ccc(Br)cc1` [Bromfenac Sodium], the “Relative cell viability (%)” value is 78.48%.

For the molecule `CN(Cc1cc(Br)cc(Br)c1N)C1CCCCC1` [Bromhexine HCl], the “Relative cell viability (%)” value came out at 122.9%.

`Oc1c(Br)cc(Br)c2cccnc12` [Broxyquinoline]: the “Relative cell viability (%)” value came to 83.94%.

On to `CCCC1O[C@@H]2C[C@H]3[C@@H]4CCC5=CC(=O)C=C[C@]5(C)[C@H]4[C@@H](O)C[C@]3(C)[C@]2(C(=O)CO)O1` (stereo partly shown) [Budesonide], for which the “Relative cell viability (%)” value is on record as 83.64%.

Turning to `CCCCOc1ccc(CC(=O)NO)cc1` [Bufexamac], the “Relative cell viability (%)” value worked out at 101.5%.

With `COc1cc(OC)c(C(=O)CCCN2CCCC2)c(OC)c1` [Buflomedil HCl], the “Relative cell viability (%)” value is reported as 34.47%.

`CCCCNc1cc(C(=O)O)cc(S(N)(=O)=O)c1Oc1ccccc1` [Bumetanide]: the “Relative cell viability (%)” value is 61.84%.

As to `CCCCN1CCCCC1C(=O)Nc1c(C)cccc1C` (stereo not shown) [Bupivacaine HCl], the “Relative cell viability (%)” value is listed as 106.7%.

Consider `O=C1CC2(CCCC2)CC(=O)N1CCCCN1CCN(c2ncccn2)CC1` [Buspirone HCl], for which the “Relative cell viability (%)” value came to 73.94%.

Consider `Clc1ccc(CCC(Cn2ccnc2)Sc2c(Cl)cccc2Cl)cc1` (stereo not shown) [Butoconazole nitrate], for which the “Relative cell viability (%)” value turned out to be 63.98%.

As for `CC[C@H](Nc1ncnc2[nH]cnc12)c1nc2cccc(F)c2c(=O)n1-c1ccccc1` [CAL-101 (Idelalisib, GS-1101)], the “Relative cell viability (%)” value is listed as 112.6%.

As for `NC(=O)c1cc(N2CC2)c([N+](=O)[O-])cc1[N+](=O)[O-]` [CB1954], the “Relative cell viability (%)” value is 115%.

For the molecule `C=CC(=O)Nc1cccc(Nc2nc(Nc3ccc(N4CCN(C(C)=O)CC4)cc3OC)ncc2C(F)(F)F)c1` [CO-1686 (AVL-301)], the “Relative cell viability (%)” value is 16.24%.

On to `O=C(O)c1ccc2c(c1)nc(Nc1cccc(Cl)c1)c1ccncc12` [CX-4945 (Silmitasertib)], for which the “Relative cell viability (%)” value is given as 120.8%.

With `CO[C@H]1C(=O)[C@]2(C)[C@@H](OC)C[C@H]3OC[C@@]3(OC(C)=O)[C@H]2[C@H](OC(=O)c2ccccc2)[C@]2(O)C[C@H](OC(=O)[C@H](O)[C@@H](NC(=O)OC(C)(C)C)c3ccccc3)C(C)=C1C2(C)C` [Cabazitaxel], the “Relative cell viability (%)” value worked out at 12.62%.

`CN(C)C(=O)COC(=O)Cc1ccc(OC(=O)c2ccc(NC(=N)N)cc2)cc1` [Camostat Mesilate]: the “Relative cell viability (%)” value turned out to be 140.8%.

As to `Cc1ccc([C@@H]2O[C@H](CO)[C@@H](O)[C@H](O)[C@H]2O)cc1Cc1ccc(-c2ccc(F)cc2)s1` [Canagliflozin], the “Relative cell viability (%)” value is listed as 72.33%.

With `CCOc1nc2cccc(C(=O)OC(C)OC(=O)OC3CCCCC3)c2n1Cc1ccc(-c2ccccc2-c2nnn[nH]2)cc1` (stereo not shown) [Candesartan Cilexetil], the “Relative cell viability (%)” value is 195.6%.

As for `C[C@H](CS)C(=O)N1CCC[C@H]1C(=O)O` [Captopril], the “Relative cell viability (%)” value is given as 243.5%.

As to `CN1C2=CC(=O)/C(=N\NC(N)=O)C=C2CC1S(=O)(=O)O` (stereo not shown) [Carbazochrome sodium sulfonate (AC-17)], the “Relative cell viability (%)” value is on record as 50.49%.

With `C[C@@](Cc1ccc(O)c(O)c1)(NN)C(=O)O` [Carbidopa], the “Relative cell viability (%)” value was 97.03%.

`CC(C)C[C@H](NC(=O)[C@H](CCc1ccccc1)NC(=O)CN1CCOCC1)C(=O)N[C@@H](Cc1ccccc1)C(=O)N[C@@H](CC(C)C)C(=O)[C@@]1(C)CO1` [Carfilzomib (PR-171)]: the “Relative cell viability (%)” value turned out to be 15.53%.

`CCCCCCNC(=O)n1cc(F)c(=O)[nH]c1=O` [Carmofur]: the “Relative cell viability (%)” value worked out at 24.45%.

For `CC(C)(C)NCC(O)COc1cccc2c1CCC(=O)N2` (stereo not shown) [Carteolol HCl], the “Relative cell viability (%)” value is 86.67%.

Turning to `COc1ccccc1OCCNCC(O)COc1cccc2[nH]c3ccccc3c12` (stereo not shown) [Carvedilol], the “Relative cell viability (%)” value was determined as 24.58%.
